Reference: ChEMBL document CHEMBL1909046, “DrugMatrix in vitro pharmacology data”

How the values were obtained:
[1] = DRUGMATRIX: Tumor Necrosis Factor (TNF), Non-Selective radioligand binding (ligand: [125I] TNF-alpha); assay type: cell membranes, Membrane; settings: u-937; Not Active = under 50% inhibition at 10 µM
[2] = target: 5-hydroxytryptamine receptor 2B (Homo sapiens, UniProt P41595); assay type: cell membranes, CHO-K1, Membrane; settings: cho-k1; further: in other assays of this panel Not Active means under 50% inhibition at 10 µM
5-hydroxytryptamine receptor 2B, sequence (P41595 whole entry): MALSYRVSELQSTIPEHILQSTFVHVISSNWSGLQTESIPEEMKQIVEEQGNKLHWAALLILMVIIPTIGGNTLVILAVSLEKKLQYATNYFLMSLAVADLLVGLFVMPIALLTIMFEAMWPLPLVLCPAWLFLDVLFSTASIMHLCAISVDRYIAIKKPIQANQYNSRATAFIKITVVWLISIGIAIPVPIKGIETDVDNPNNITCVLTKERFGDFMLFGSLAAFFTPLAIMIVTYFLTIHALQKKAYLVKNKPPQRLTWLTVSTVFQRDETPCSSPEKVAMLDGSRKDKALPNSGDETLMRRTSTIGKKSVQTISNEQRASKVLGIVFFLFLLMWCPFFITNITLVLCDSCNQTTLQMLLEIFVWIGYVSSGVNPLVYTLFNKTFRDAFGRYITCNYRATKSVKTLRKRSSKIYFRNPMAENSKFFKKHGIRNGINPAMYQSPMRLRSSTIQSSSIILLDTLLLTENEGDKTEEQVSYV

[3] = target: Mitogen-activated protein kinase 14 (Homo sapiens, UniProt Q16539); parameters: species or system Escherichia coli;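 further: inhibition of p38alpha enzyme activity in a biochemical kinase assay, with myelin basic protein serving as substrate; in other assays of this panel Not Active means under 50% inhibition at 10 µM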
Mitogen-activated protein kinase 14, sequence (Q16539 whole entry): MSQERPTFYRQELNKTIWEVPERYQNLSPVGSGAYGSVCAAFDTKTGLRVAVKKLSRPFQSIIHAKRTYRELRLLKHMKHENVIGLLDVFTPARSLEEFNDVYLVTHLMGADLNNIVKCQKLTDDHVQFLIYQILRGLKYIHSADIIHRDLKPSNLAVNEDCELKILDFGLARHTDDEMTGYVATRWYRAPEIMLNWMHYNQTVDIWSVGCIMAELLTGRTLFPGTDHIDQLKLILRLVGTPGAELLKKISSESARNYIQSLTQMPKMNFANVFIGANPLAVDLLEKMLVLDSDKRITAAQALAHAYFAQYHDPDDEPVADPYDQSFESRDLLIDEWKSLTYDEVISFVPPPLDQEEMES

Adenosine receptor A3 = target: T1, Adenosine receptor A3 (Homo sapiens, UniProt P0DMS8); assay type: cell membranes, CHO-K1, Membrane; settings: cho-k1;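 further: radioligand binding assay with AB-MECA serving as the labeled ligand; in other assays of this panel Not Active means under 50% inhibition at 10 µM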
T1 sequence (P0DMS8 whole entry): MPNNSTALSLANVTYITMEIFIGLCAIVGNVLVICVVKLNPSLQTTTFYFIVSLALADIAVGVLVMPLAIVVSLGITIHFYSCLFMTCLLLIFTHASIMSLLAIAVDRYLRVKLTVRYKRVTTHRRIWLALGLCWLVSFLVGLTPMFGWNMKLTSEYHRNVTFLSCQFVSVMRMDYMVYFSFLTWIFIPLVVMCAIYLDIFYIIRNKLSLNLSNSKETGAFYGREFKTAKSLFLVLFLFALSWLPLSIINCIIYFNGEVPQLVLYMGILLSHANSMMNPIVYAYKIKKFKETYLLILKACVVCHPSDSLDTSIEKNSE

[4] = target: T2, Neuropeptide Y receptor type 2 (Homo sapiens, UniProt P49146); assay type: cell membranes, Membrane; settings: kan-ts; further: in other assays of this panel Not Active means under 50% inhibition at 10 µM
T2 sequence (P49146 whole entry): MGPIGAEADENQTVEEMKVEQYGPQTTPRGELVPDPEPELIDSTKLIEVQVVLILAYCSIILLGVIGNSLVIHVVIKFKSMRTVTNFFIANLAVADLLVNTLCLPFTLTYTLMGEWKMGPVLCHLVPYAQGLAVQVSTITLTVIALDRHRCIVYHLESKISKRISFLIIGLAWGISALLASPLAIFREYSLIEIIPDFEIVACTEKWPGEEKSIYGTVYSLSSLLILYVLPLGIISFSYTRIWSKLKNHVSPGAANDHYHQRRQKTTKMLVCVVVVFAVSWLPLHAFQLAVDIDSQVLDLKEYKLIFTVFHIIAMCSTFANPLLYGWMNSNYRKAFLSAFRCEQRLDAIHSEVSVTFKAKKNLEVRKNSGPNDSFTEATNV

[5] = DRUGMATRIX: Glutamate, Kainate radioligand binding (ligand: [3H] Kainic acid); assay type: cell membranes, Rattus norvegicus, Wistar, Brain, Membrane; settings: Not Active = under 50% inhibition at 10 µM
Glycine receptor = Glycine receptor (Rattus norvegicus, UniProt P22771+P24524+P07727+P20781); assay type: cell membranes, Wistar, Spinal cord, Membrane; further: in other assays of this panel Not Active means under 50% inhibition at 10 µM
Substance-P receptor = Substance-P receptor (Homo sapiens, UniProt P25103); assay type: cell membranes, CHO, Membrane; settings: cho; further: in other assays of this panel Not Active means under 50% inhibition at 10 µM
Substance-P receptor, sequence (P25103 whole entry): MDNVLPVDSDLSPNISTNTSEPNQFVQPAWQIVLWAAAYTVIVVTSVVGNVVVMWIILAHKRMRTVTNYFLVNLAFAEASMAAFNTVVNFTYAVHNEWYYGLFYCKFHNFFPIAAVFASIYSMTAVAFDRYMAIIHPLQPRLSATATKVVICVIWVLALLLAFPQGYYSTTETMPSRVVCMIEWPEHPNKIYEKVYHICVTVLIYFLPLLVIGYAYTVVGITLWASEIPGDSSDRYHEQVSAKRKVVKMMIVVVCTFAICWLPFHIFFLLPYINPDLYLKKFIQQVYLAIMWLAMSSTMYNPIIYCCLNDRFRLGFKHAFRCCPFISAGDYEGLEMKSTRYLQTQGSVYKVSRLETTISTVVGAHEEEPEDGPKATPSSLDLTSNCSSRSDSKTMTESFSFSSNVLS

[6] = target: Platelet-activating factor receptor (Homo sapiens, UniProt P25105); experiment: biochemical; assay type: tissue-based; settings: platelet; further: in other assays of this panel Not Active means under 50% inhibition at 10 µM
Platelet-activating factor receptor, sequence (P25105 whole entry): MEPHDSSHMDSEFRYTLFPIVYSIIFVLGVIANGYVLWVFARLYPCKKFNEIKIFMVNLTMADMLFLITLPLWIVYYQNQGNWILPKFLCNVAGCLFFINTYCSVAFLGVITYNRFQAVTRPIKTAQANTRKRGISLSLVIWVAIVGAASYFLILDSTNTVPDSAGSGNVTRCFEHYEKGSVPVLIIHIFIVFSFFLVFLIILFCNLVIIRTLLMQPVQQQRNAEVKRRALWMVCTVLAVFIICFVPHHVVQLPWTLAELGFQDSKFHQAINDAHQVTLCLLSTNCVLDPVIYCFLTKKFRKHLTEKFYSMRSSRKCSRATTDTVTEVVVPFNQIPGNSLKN

[7] = DRUGMATRIX: Calcium Channel Type L, Phenylalkylamine radioligand binding (ligand: [3H] (-)-Desmethoxyverapamil (D-888)); assay type: cell membranes, Rattus norvegicus, Wistar, Brain, Membrane; settings: Not Active = under 50% inhibition at 10 µM
Thromboxane-A synthase = target: T3, Thromboxane-A synthase (Homo sapiens, UniProt P24557); experiment: biochemical; assay type: tissue-based, Platelet; settings: platelet
T3 sequence (P24557 whole entry): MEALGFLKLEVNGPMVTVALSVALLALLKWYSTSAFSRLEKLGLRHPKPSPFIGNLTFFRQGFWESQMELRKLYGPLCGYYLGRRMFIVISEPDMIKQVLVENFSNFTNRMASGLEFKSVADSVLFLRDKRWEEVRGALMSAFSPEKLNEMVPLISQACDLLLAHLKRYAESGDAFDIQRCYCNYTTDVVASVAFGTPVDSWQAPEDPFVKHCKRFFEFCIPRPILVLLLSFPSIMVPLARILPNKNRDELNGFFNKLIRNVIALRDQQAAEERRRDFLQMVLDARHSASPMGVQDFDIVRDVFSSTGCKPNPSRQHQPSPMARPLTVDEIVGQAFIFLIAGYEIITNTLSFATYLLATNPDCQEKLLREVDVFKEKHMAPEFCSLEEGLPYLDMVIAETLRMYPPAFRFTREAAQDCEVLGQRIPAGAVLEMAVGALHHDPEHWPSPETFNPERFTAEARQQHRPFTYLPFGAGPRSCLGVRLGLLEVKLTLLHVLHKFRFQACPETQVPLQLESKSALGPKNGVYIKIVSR

[8] = target: T4, C-C chemokine receptor type 4 (Homo sapiens, UniProt P51679); assay type: cell membranes, Membrane; settings: chem-1; further: in other assays of this panel Not Active means under 50% inhibition at 10 µM
T4 sequence (P51679 whole entry): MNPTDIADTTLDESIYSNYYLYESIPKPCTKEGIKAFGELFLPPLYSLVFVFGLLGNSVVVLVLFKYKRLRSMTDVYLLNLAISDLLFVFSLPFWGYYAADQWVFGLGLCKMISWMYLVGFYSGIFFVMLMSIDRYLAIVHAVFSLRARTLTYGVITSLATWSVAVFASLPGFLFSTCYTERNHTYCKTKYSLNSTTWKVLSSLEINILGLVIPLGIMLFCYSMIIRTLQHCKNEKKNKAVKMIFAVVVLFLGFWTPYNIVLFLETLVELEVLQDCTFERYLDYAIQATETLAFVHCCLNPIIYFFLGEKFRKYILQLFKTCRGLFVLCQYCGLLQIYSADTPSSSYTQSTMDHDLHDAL

D(1A) dopamine receptor = D(1A) dopamine receptor (Homo sapiens, UniProt P21728); experiment: DRUGMATRIX: Dopamine D1 radioligand binding (ligand: [3H] SCH-23390); assay type: cell membranes, CHO, Membrane; settings: cho; Not Active = under 50% inhibition at 10 µM
D(1A) dopamine receptor, sequence (P21728 whole entry): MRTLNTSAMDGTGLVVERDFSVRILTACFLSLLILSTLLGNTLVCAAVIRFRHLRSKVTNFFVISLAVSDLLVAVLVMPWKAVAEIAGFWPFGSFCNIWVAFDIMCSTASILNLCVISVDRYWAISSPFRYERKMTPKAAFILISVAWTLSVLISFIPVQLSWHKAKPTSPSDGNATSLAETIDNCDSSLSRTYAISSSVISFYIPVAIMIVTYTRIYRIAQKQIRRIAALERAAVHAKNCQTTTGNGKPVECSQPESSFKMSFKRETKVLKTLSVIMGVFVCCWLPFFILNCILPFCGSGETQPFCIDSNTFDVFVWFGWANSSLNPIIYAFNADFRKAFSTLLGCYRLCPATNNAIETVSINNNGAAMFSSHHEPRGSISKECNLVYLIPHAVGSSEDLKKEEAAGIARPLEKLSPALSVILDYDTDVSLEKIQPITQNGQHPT

Adenosine receptor A2a = Adenosine receptor A2a (Homo sapiens, UniProt P29274); experiment: DRUGMATRIX: Adenosine A2A radioligand binding (ligand: […]); assay type: cell membranes, HEK293, Membrane; settings: hek293; Not Active = under 50% inhibition at 10 µM
Adenosine receptor A2a, sequence (P29274 whole entry): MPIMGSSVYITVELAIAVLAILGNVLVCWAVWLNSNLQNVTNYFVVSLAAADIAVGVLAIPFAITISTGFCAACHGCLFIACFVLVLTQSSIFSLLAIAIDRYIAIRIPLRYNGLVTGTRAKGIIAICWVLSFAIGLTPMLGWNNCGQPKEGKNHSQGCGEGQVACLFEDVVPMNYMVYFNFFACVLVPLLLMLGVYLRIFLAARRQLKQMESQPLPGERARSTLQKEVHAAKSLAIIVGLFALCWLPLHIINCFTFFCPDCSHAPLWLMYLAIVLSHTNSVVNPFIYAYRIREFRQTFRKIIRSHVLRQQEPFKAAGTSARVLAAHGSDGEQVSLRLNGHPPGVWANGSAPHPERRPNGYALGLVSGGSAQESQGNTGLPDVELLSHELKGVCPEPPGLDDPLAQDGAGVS

Caspase-1 = target: T5, Caspase-1 (Homo sapiens, UniProt P29466); parameters: species or system Escherichia coli
T5 sequence (P29466 whole entry): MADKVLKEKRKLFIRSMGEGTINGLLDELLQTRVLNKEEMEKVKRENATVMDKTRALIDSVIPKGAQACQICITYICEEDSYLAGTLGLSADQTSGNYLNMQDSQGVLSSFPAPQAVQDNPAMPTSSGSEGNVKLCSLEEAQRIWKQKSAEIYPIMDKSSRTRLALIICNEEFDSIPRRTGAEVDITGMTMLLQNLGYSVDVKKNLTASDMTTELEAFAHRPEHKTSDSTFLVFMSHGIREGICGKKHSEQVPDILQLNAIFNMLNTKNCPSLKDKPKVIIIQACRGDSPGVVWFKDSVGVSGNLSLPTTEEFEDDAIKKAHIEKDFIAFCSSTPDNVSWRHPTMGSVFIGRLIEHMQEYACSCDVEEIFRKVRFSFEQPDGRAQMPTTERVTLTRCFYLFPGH

C=CC[C@@H]1/C=C(\C)C[C@H](C)C[C@H](OC)[C@H]2O[C@@](O)(C(=O)C(=O)N3CCCC[C@H]3C(=O)O[C@H](/C(C)=C/[C@@H]3CC[C@@H](O)[C@H](OC)C3)[C@H](C)[C@@H](O)CC1=O)[C@H](C)C[C@@H]2OC [TACROLIMUS ANHYDROUS]
Not Active: IC50 [1] | Ki [1] | IC50 [2] | IC50 [3] | IC50 (Adenosine receptor A3) | IC50 [4] | IC50 [5] | Ki [5] | IC50 (Glycine receptor) | IC50 (Substance-P receptor) | IC50 [6] | IC50 [7] | Ki [7] | IC50 (Thromboxane-A synthase) | IC50 [8] | IC50 (D(1A) dopamine receptor) | IC50 (Adenosine receptor A2a) | IC50 (Caspase-1)

CC1CN(c2cc3c(cc2F)c(=O)c(C(=O)O)cn3-c2ccc(F)cc2F)CCN1 (centres undefined) [TEMAFLOXACIN]
Not Active: IC50 [1] | Ki [1] | IC50 [2] | IC50 [3] | IC50 (Adenosine receptor A3) | IC50 [4] | IC50 [5] | Ki [5] | IC50 (Glycine receptor) | IC50 (Substance-P receptor) | IC50 [6] | IC50 [7] | Ki [7] | IC50 (Thromboxane-A synthase) | IC50 [8] | IC50 (D(1A) dopamine receptor) | IC50 (Adenosine receptor A2a) | IC50 (Caspase-1)

CC(C)(C)NCC(O)c1cc(O)cc(O)c1 (centres undefined) [TERBUTALINE]
Not Active: IC50 [1] | Ki [1] | IC50 [2] | IC50 [3] | IC50 (Adenosine receptor A3) | IC50 [4] | IC50 [5] | Ki [5] | IC50 (Glycine receptor) | IC50 (Substance-P receptor) | IC50 [6] | IC50 [7] | Ki [7] | IC50 (Thromboxane-A synthase) | IC50 [8] | IC50 (D(1A) dopamine receptor) | IC50 (Adenosine receptor A2a) | IC50 (Caspase-1)

CN(C)[C@@H]1C(O)=C(C(N)=O)C(=O)[C@@]2(O)C(O)=C3C(=O)c4c(O)cccc4[C@@](C)(O)[C@H]3C[C@@H]12 [TETRACYCLINE]
Not Active: IC50 [1] | Ki [1] | IC50 [2] | IC50 [3] | IC50 (Adenosine receptor A3) | IC50 [4] | IC50 [5] | Ki [5] | IC50 (Glycine receptor) | IC50 (Substance-P receptor) | IC50 [6] | IC50 [7] | Ki [7] | IC50 (Thromboxane-A synthase) | IC50 [8] | IC50 (D(1A) dopamine receptor) | IC50 (Adenosine receptor A2a) | IC50 (Caspase-1)

c1ccc2[nH]c(-c3cscn3)nc2c1 [THIABENDAZOLE]
Not Active: IC50 [1] | Ki [1] | IC50 [2] | IC50 [3] | IC50 (Adenosine receptor A3) | IC50 [4] | IC50 [5] | Ki [5] | IC50 (Glycine receptor) | IC50 (Substance-P receptor) | IC50 [6] | IC50 [7] | Ki [7] | IC50 (Thromboxane-A synthase) | IC50 [8] | IC50 (D(1A) dopamine receptor) | IC50 (Adenosine receptor A2a) | IC50 (Caspase-1)

Cc1ccc(C(=O)C(C)CN2CCCCC2)cc1 (centres undefined) [TOLPERISONE]
Not Active: IC50 [1] | Ki [1] | IC50 [2] | IC50 [3] | IC50 (Adenosine receptor A3) | IC50 [4] | IC50 [5] | Ki [5] | IC50 (Glycine receptor) | IC50 (Substance-P receptor) | IC50 [6] | IC50 [7] | Ki [7] | IC50 (Thromboxane-A synthase) | IC50 [8] | IC50 (D(1A) dopamine receptor) | IC50 (Adenosine receptor A2a) | IC50 (Caspase-1)

NC(CO)(CO)CO [TROMETHAMINE]
Not Active: IC50 [1] | Ki [1] | IC50 [2] | IC50 [3] | IC50 (Adenosine receptor A3) | IC50 [4] | IC50 [5] | Ki [5] | IC50 (Glycine receptor) | IC50 (Substance-P receptor) | IC50 [6] | IC50 [7] | Ki [7] | IC50 (Thromboxane-A synthase) | IC50 [8] | IC50 (D(1A) dopamine receptor) | IC50 (Adenosine receptor A2a) | IC50 (Caspase-1)

CN1[C@@H]2CC[C@H]1C[C@@H](OC(=O)c1c[nH]c3ccccc13)C2 [TROPISETRON]
Not Active: IC50 [1] | Ki [1] | IC50 [2] | IC50 [3] | IC50 (Adenosine receptor A3) | IC50 [4] | IC50 [5] | Ki [5] | IC50 (Glycine receptor) | IC50 (Substance-P receptor) | IC50 [6] | IC50 [7] | Ki [7] | IC50 (Thromboxane-A synthase) | IC50 [8] | IC50 (D(1A) dopamine receptor) | IC50 (Adenosine receptor A2a) | IC50 (Caspase-1)
